{"source": "patent US10513697B2", "about": "“CO2 profile cultivation” (Hoffmann-La Roche Inc., priority 2011, dated 2019)", "key": {"[1]": {"test_system": "control cell line in HyQ medium (Control HyQ, non-transfected CHO cell line)", "test": "Re-alkalinization experiment (pHi recovery after CO2 acid load, flow cytometry) in control cell line", "assay_type": "cell-based, Chinese Hamster", "method": "To examine the effect of hCAII expression on the cell internal pH value (pHi), the control cell line in HyQ medium and clone E11 were submitted to a short term acidification. This was achieved by mixing the cells with a CO2-containing solution and measuring the subsequent pHi recovery. […] A replicate of this experiment was performed with the carbonic anhydrase II inhibitor ethoxyzolamide and the results are presented in FIGS. 7(A) and 7(B). […] The following Table summarizes some of the characteristics of the tested cell lines.\npHi measurements were carried out by flow cytometry with the available pHi fluorescent indicator, Carboxy SNARF-1 AM (Molecular Probes Inc.). This dye is an acetoxymethyl (AM) ester that enter the cells readily and is hydrolyzed by non-specific esterases to yield the free fluorescent dye. SNARF-1 AM is very sensitive to pHi changes within the physiological range. It is excited between 488 nm and 530 nm and the fluorescence emission is monitored at two wavelengths, typically about 580 nm (FL2-H) and 640 nm (FL3-H). This is particularly interesting as the fluorescence emission wavelength ratio can be calculated foe a more accurate determination of the pHi. With the use of this ratiometric technique, a number of fluorescence measurement artifacts are eliminated, such as photobleaching, cell thickness and leakage and non-uniform loading of the indicator (SNARF® pH indicators, Product information, 2003, Molecular Probes Inc.). Herein the Pseudo-Null calibration method was used. […] A simplification can be considered if the calibration solutions are prepared in such a way that a concentration of weak base and a concentration of weak acid produce an equal but opposite change in pHi (i.e., pHa=pHb). The derived relationship for pHi determination is presented in Equation 10.11.\nThe regulation of the pHi was studied by flow cytometric analysis during intracellular acidification with bicarbonate. The kinetic of the transporters were examined. This test was made at physiological conditions. Therefore medium was used instead of buffer to account for influences of other medium components. To eliminate the activity of other cellular pHi-regulation systems, cells were pre-incubated in bicarbonate-free medium buffered with HEPES. […] This system consisting of two disposable 5 ml Luer-Lock syringes (B. Braun AG, Melsungen, Germany) connected by a short tubing and two Luer tubing connectors (Rotilabo®). These Luer connectors permitted the rapid and easy connection/disconnection of the 2 syringes.\nSyringe A contained stained cells in bicarbonate-free production medium and syringe B production medium with 4.2 g/l NaHCO3 (corresponding to […] at pH 7.2). Both media contained 20 mM HEPES and were adjusted to pH 7.2 at 37° C. Acid-load was achieved by pressing bicarbonate-containing medium from syringe B into syringe A. A 5 ml syringe was pre-loaded with 22 μl of SNARF-1 AM (2 mM stock solution; Table 3). 1×10^6 cells, from the exponential phase, were harvested and washed once with 4 ml medium without bicarbonate. After which, the cell suspension was sucked (without air bubbles) into the pre-loaded fluorescence dye syringe, which was them closed with the Luer-stopper and gently mixed. […] The syringe B was discarded, syringe A was closed and after short mixing, the acid-loaded cells were analyzed by flow cytometry. Additionally, some samples were measured with the blood gas analyzer to determine the content of CO2 in medium during the experiment. […]"}, "[2]": {"test_system": "hCAII-expressing CHO cell clone E11", "test": "Re-alkalinization experiment (pHi recovery after CO2 acid load, flow cytometry) in hCAII-expressing clone", "assay_type": "cell-based, Chinese Hamster", "description": "pHi measurements were carried out by flow cytometry with the available pHi fluorescent indicator, Carboxy SNARF-1 AM (Molecular Probes Inc.). This dye is an acetoxymethyl (AM) ester that enter the cells readily and is hydrolyzed by non-specific esterases to yield the free fluorescent dye. SNARF-1 AM is very sensitive to pHi changes within the physiological range. It is excited between 488 nm and 530 nm and the fluorescence emission is monitored at two wavelengths, typically about 580 nm (FL2-H) and 640 nm (FL3-H). This is particularly interesting as the fluorescence emission wavelength ratio can be calculated foe a more accurate determination of the pHi. […] Herein the Pseudo-Null calibration method was used. […] A simplification can be considered if the calibration solutions are prepared in such a way that a concentration of weak base and a concentration of weak acid produce an equal but opposite change in pHi (i.e., pHa=pHb). The derived relationship for pHi determination is presented in Equation 10.11.\nSyringe A contained stained cells in bicarbonate-free production medium and syringe B production medium with 4.2 g/l NaHCO3 (corresponding to 25% CO2 at pH 7.2). Both media contained 20 mM HEPES and were adjusted to pH 7.2 at 37° C. Acid-load was achieved by pressing bicarbonate-containing medium from syringe B into syringe A. A 5 ml syringe was pre-loaded with 22 μl of SNARF-1 AM (2 mM stock solution; Table 3). 1×10^6 cells, from the exponential phase, were harvested and washed once with 4 ml medium without bicarbonate. After which, the cell suspension was sucked (without air bubbles) into the pre-loaded fluorescence dye syringe, which was them closed with the Luer-stopper and gently mixed. After a 25 min. period of incubation at 37° C. in the dark, with regularly mixing to avoid cell settling, followed dissolved gas and flow cytometric analysis. Three measurements of loaded cells in bicarbonate-free medium were made before acidification of cells cytoplasm. Afterwards, the syringe B was connected to syringe A and the double volume of NaHCO3-containing medium was added. The syringe B was discarded, syringe A was closed and after short mixing, the acid-loaded cells were analyzed by flow cytometry. Additionally, some samples were measured with the blood gas analyzer to determine the content of CO2 in medium during the experiment.\nTo test if the re-alkalinization effect was due to the hCAII-overexpression, the hCAII inhibitor ethoxyzolamide (ACTZ) was used. […]"}}}
{"smiles": "CCOc1ccc2nc(S(N)(=O)=O)sc2c1", "note": "[ACTZ, ethoxyzolamide]", "values": [{"measurement": "Steady state pHi", "setting": "[1]; Control HyQ + ACTZ, 100 μM ethoxyzolamide in media, pHe 7.10", "result": 7.02}, {"measurement": "pHi (acid load)", "setting": "[1]; Control HyQ + ACTZ, 100 μM ethoxyzolamide, about 9% CO2 acid load", "result": 6.84}, {"measurement": "pHi/min (5 min)", "setting": "[1]; Control HyQ + ACTZ, 100 μM ethoxyzolamide, initial recovery rate of first 5 min after acid load", "result": 0.049, "unit": "pHi/min"}, {"measurement": "decrease on the re-alkalinization rate", "setting": "[1]; control cell line in HyQ medium, in the presence of the inhibitor", "result": 30, "unit": "%"}, {"measurement": "time after exposure to CO2-containing medium at which steady state pHi was exceeded", "setting": "[1]; hCAII inhibited reaction, control cell line in HyQ medium (11 min. without inhibitor)", "result": 5, "unit": "min."}, {"measurement": "Steady state pHi", "setting": "[2]; Clone E11 + ACTZ, 100 μM ethoxyzolamide in media, pHe 7.11", "result": 6.87}, {"measurement": "pHi (acid load)", "setting": "[2]; Clone E11 + ACTZ, 100 μM ethoxyzolamide, about 9% CO2 acid load", "result": 6.61}, {"measurement": "pHi/min (5 min)", "setting": "[2]; Clone E11 + ACTZ, 100 μM ethoxyzolamide, initial recovery rate of first 5 min after acid load", "result": 0.057, "unit": "pHi/min"}, {"measurement": "decrease on the re-alkalinization rate", "setting": "[2]; clone E11, in the presence of the inhibitor", "result": 19, "unit": "%"}, {"measurement": "time after exposure to CO2-containing medium at which steady state pHi was exceeded", "setting": "[2]; hCAII inhibited reaction, clone E11 (8 min. without inhibitor)", "result": 5, "unit": "min."}]}
